Legend:
[1] = test system: Rattus norvegicus; assay: Anti-inflammatory activity in Rattus norvegicus Wistar albino (rat) assessed as inhibition of carrageenan-induced paw edema after 180 min (reference value: 22.3%); assay type: functional
[2] = test system: Rattus norvegicus; assay: Anti-inflammatory activity in Rattus norvegicus Wistar albino (rat) assessed as growth of carrageenan-induced paw edema after 30 min (reference value: 1.27 +/- 0.043%); assay type: functional
[3] = test system: Rattus norvegicus; assay: Anti-inflammatory activity in Rattus norvegicus Wistar albino (rat) assessed as growth of carrageenan-induced paw edema after 90 min (reference value: 1.36 +/- 0.070%); assay type: functional
[4] = test system: Rattus norvegicus; assay: Anti-inflammatory activity in Rattus norvegicus Wistar albino (rat) assessed as inhibition of carrageenan-induced paw edema after 90 min (reference value: 38.7%)
[5] = test system: Rattus norvegicus; assay: Anti-inflammatory activity in Rattus norvegicus Wistar albino (rat) assessed as inhibition of carrageenan-induced paw edema after 30 min (reference value: 30.1%); assay type: functional

SMILES | inhibition (INH) [1] [%] | Activity [2] [%] | Activity [3] [%] | inhibition (INH) [4] [%] | inhibition (INH) [5] [%]
CCOC(=O)c1c(C)nn(-c2ccccc2)c1OCCCN1C(=O)c2ccccc2C1=O | 39.3 | 1.11 | 1.18 | 44.7 | 38.9
CCOC(=O)c1c(C)nn(-c2ccccc2)c1OCCCOc1nc(C)cc(C)c1C#N | 16.8 | 1.22 | 1.18 | 24.6 | 21.4
COC(=O)c1c(C)nn(-c2ccccc2)c1OCCCN1C(=O)c2ccccc2C1=O | 1.7 | 1.25 | 1.39 | 4.8 | 5.9
COC(=O)c1c(C)nn(-c2ccccc2)c1OCCCOc1c(C(=O)OC)c(C)nn1-c1ccccc1 | 17.9 | 1.34 | 1.49 | 24.4 | 15.1
COC(=O)c1c(C)nn(-c2ccccc2)c1OCCCOc1nc(C)cc(C)c1C#N | 24.9 | 0.81 | 0.92 | 28.7 | 16.8
CCOC(=O)c1c(C)nn(-c2ccccc2)c1OCCCn1c(C)cc(C)c(C#N)c1=O | 20.4 | 1.05 | 1.16 | 28.5 | 22.4
CS(=O)(=O)Nc1ccc([N+](=O)[O-])cc1Oc1ccccc1 [NIMESULIDE] | 2.54 | 1.29 | 1.25 | 7.9 | 10.8
COC(=O)c1c(C)nn(-c2ccccc2)c1OCCCn1c(C)cc(C)c(C#N)c1=O | 18.5 | 0.94 | 1.03 | 29.7 | 17.6

From ChEMBL document CHEMBL3044719, “Synthesis of pyrazole-based 1,5-diaryl compounds as potent anti-inflammatory agents” (2012)
